Data from patent US11059833B2, “BCKDK inhibitors” (Pfizer Inc., priority 2019, dated 2021).
Read-outs that look alike come from different tables or passages of the source.

Columns and labels:
[1] = target: T1, human BCKDK (Homo sapiens, UniProt O14874); test: In Vitro FRET (TR-FRET) BCKDK activity assay, phosphorylation of BCKDHE1α-E2 fusion substrate; format: biochemical
T1 construct: human BCKDK (residues 31-412 of the protein pre-processing); 6xHis (N, cleaved yes); MBP (N, cleaved yes); TEV protease site (ENLYFQG) (N, cleaved yes); made in house; host or cells: BL21(DE3) E. coli, co-expressed with GroEL-GroES
Procedure: For lipoylation, fusion substrate was incubated with LpIA at a 10:1 (substrate:LplA) ratio in 20 mM sodium phosphate pH 7.4, 6 mM MgCl2, 4 mM ATP, 2 mM DTT, 3 mM DL-6,8-thioctic acid at 37° C.
BCKDK activity was monitored by phosphorylation of a HIS-tagged fusion BCKDHE1α-E2 substrate protein as described above and was detected using a time resolved-fluorescence resonance energy transfer (TR-FRET) assay system. Compounds were spotted into a 384 well plate, and purified human BCKDK protein was added to the plated compound. […] The reaction was terminated with EDTA. […] Signal intensity was proportional to the level of BCKDK-mediated substrate phosphorylation. Reactions were normalized to zero percent effect with DMSO and one hundred percent effect with 600 μM Radicicol, a known BCKDK inhibitor. IC50 curves were generated using ABASE software (IDBS, Boston Mass.).

[2] = system: phosphorylation of S293 BCKDH; test: Phospho BCKDHA AlphaLISA in human skeletal myocytes; format: cell-based; conditions: 1 h, 60 minutes, geometric mean
Procedure: Prior to conducting the assay, BCKDH antibodies (Bethyl A303-790A) were biotinylated using the ChromaLink™ One-Shot Antibody Biotinylation Kit B-9007-009K and phospho Ser293 BCKDHA antibodies (Bethyl A304-672A) were directly conjugated to AlphaLISA Acceptor Beads (custom conjugation performed by Perkin Elmer's Lance/Delfia Custom Services, Boston Mass.). Human skeletal myocytes (Gibco A11440) were plated in a 384 well plate at a density of 7500 live cells/well and grown in skeletal muscle growth media containing the media supplement and chick embryo extract (Promocell C-23060 and C-23160, MP92850145). After overnight incubation, media was removed, and BCKDK inhibitors were added in assay media (growth media diluted 10-fold in PBS). After 60 minutes, the media was removed, the cells were washed with PBS and lysed in 10 μL of buffer (Cell Signaling #9803) containing 2 nM biotinylated total BCKDH antibodies. Samples were incubated for 60 minutes, and 5 μL of AlphaLISA acceptor beads conjugated with phospho-S293 BCKDH antibodies were added 1× Alpha buffer. After a 60 minute incubation, 5 μL streptavidin donor beads (40 μg/μL) beads were added in 1× Alpha buffer while protecting from light. Fluorescence was emitted when the phospho and total BCKDH antibodies were within proximity, signifying phosphorylation of S293 BCKDH. Fluorescence was monitored on the Envision plate reader. The zero percent effect was determined from DMSO treatment and the maximal effect was assessed relative to the BCKDK inhibitor BT2. IC50 curves were generated using ActivityBase software (IDBS, Boston Mass.).

[3] = system: Mice fed 60% high fat diet; test: Diabetic animal model: fasting glucose and oral glucose tolerance test; format: in vivo; conditions: for Area under the curve for the glucose tolerance test as percent of vehicle treated group: 1 g/kg dextrose; for fasting plasma glucose levels: high fat diet mice, mean±SEM
Procedure: Blood glucose was measured 15, 30, 60, and 120 minutes after the gavage, and the data were plotted and analyzed as area under the curve using GraphPad Prism 8.0 (GraphPad Software, La Jolla, Calif.). Blood was concomitantly collected in EDTA tubes at the 0, 15 and 30 minute time points, spun down at 10K RPM for 10 minutes. […] Area under the curve for the glucose tolerance test as percent of vehicle treated group was 100.0±3 (vehicle, n=29), 100±4 (20 mg/kg, n=18), 87±2 (60 mg/kg, n=30), 78±2 (180 mg/kg, n=16).

[4] = system: Dahl salt sensitive male rats; test: Heart failure rat model (high salt diet); format: in vivo; conditions: 100 mg/kg PO once daily
Procedure: Dahl salt sensitive male rats (Charles River strain SS/JrHsdMcwiCrl) were fed control diet or 6% high salt diet (iD03121701-AIN-76a rodent diet with added 6% NaCl) for 21 weeks in total. At week 5, the high salt diet-fed rats were dosed PO with 100 mg/kg BT2 or vehicle once daily for the last 16 weeks of study. Echocardiography was performed at week 18 (myocardial performance index (MPI): control diet 0.567±0.034, high salt+vehicle 0.810±0.039, high salt+BT2 0.660±0.030; Isovolumic relaxation time (IVRT): control diet 23.154±0.60 ms, high salt+vehicle 36.507±2.20 ms, high salt+BT2 31.605±1.78 ms; Intraventricular septal thickness at diastole (IVDd): control 2.03±0.088 mm, high salt+vehicle 2.877±0.110 mm, high salt+BT2 2.489±0.089 mm). NT-pro-BNP (MSD K153JKD; control […], high salt+vehicle 1003.0±200.8 μg/mL, high salt+BT2 503.4±84.96 μg/mL), and proANP (MSD K153MBD; control 33.50±5.4 ng/mL, high salt 65.19±8.3 ng/mL, high salt+BT2 38.81±7.0 ng/mL) levels were measured in plasma using MSD assays at the terminal time point. Heart weights were measured at euthanasia and normalized to tibia length (heart/tibia control 0.033±0.001 g/mm; high salt+vehicle 0.042±0.001 g/mm, high salt+BT2 0.038±0.001 g/mm).

[5] = purified human BCKDK, 15 μM ATP, geometric mean, read-out: In Vitro FRET IC50

SMILES	IC50 [1, 5]	IC50 [2]	also measured
O=C(O)c1sc2cc(F)sc2c1Cl [Example 1, 3-Chloro-5-fluorothieno[3,2-b]thiophene-2-carboxylic acid]		0.72 µM	Area under the curve for the glucose tolerance test as percent of vehicle treated group ([3]; 20 mg/kg PO, n=18 (vehicle 100.0±3)): 100±4% of vehicle treated group; fasting plasma glucose levels ([3]; 20 mg/kg PO, n=18 (vehicle 237±5)): 230 ± 8 mg/dL; Area under the curve for the glucose tolerance test as percent of vehicle treated group ([3]; 60 mg/kg PO, n=30 (vehicle 100.0±3)): 87±2% of vehicle treated group; fasting plasma glucose levels ([3]; 60 mg/kg PO, n=40 (vehicle 237±5)): 221 ± 4 mg/dL; Area under the curve for the glucose tolerance test as percent of vehicle treated group ([3]; 180 mg/kg PO, n=16 (vehicle 100.0±3)): 78±2% of vehicle treated group; fasting plasma glucose levels ([3]; 180 mg/kg PO, n=19 (vehicle 237±5)): 206 ± 5 mg/dL
O=C(O)c1sc2cc(Cl)ccc2c1Cl [BT2, 3,6-dichloro-1-benzothiophene-2-carboxylic acid]		4.5 µM	IC50 [1]: 1.3 µM; heart weight normalized to tibia length (heart/tibia) ([4]; at euthanasia (high salt+vehicle 0.042±0.001, control 0.033±0.001)): 0.038±0.001 g/mm; myocardial performance index (MPI) ([4]; echocardiography at week 18 (high salt+vehicle 0.810±0.039, control diet 0.567±0.034)): 0.660±0.030; Intraventricular septal thickness at diastole (IVDd) ([4]; echocardiography at week 18 (high salt+vehicle 2.877±0.110, control 2.03±0.088)): 2.489±0.089 mm; Isovolumic relaxation time (IVRT) ([4]; echocardiography at week 18 (high salt+vehicle 36.507±2.20, control diet 23.154±0.60)): 31.605 ± 1.78 ms; proANP level in plasma ([4]; terminal time point (high salt 65.19±8.3, control 33.50±5.4)): 38.81 ± 7.0 ng/mL; NT-pro-BNP level in plasma ([4]; terminal time point (high salt+vehicle 1003.0±200.8, control 294.9±26.04)): 503.4 ± 84.96 µg/mL
Cc1c(C(=O)O)sc2cc(Cl)sc12 [Example 14, 5-chloro-3-methylthieno[3,2-b]thiophene-2-carboxylic acid]	0.8 µM		
O=C(O)c1sc2cc(Cl)sc2c1C(F)F [Example 11, 5-chloro-3-(difluoromethyl)thieno[3,2-b]thiophene-2-carboxylic acid]	0.37 µM	2.2 µM	
CCc1c(C(=O)O)sc2cc(Cl)sc12 [Example 16, 5-chloro-3-ethylthieno[3,2-b]thiophene-2-carboxylic acid]	0.88 µM	3.6 µM	
O=C(O)c1sc2cc(Cl)sc2c1Br [Example 15, ammonium 3-bromo-5-chlorothieno[3,2-b]thiophene-2-carboxylate]	0.84 µM	2.8 µM	
O=C(O)c1sc2c(F)c(Cl)sc2c1F [Example 13, 5-chloro-3,6-difluorothieno[3,2-b]thiophene-2-carboxylic acid]	0.47 µM	1.9 µM	
O=C(O)c1sc2cc(F)sc2c1Br [Example 2, 3-Bromo-5-fluorothieno[3,2-b]thiophene-2-carboxylic acid]	0.12 µM	1.5 µM	
O=C(O)c1sc2cc(F)ccc2c1Cl [BT2F, 3-chloro-6-fluoro-1-benzothiophene-2-carboxylic acid, reference compound]	0.81 µM		
Cc1c(C(=O)O)sc2cc(F)sc12 [Example 9, 5-fluoro-3-methylthieno[3,2-b]thiophene-2-carboxylic acid]	0.28 µM	1.6 µM	
O=C(O)c1sc2cc(F)sc2c1C(F)F [Example 3, 3-(Difluoromethyl)-5-fluorothieno[3,2-b]thiophene-2-carboxylic acid]	0.065 µM	1.8 µM	

Continued, in another order:

IC50 [1, 5]	IC50 [2]	SMILES	also measured
0.26 µM	1.1 µM	O=C(O)c1sc2cc(Cl)sc2c1F [Example 7, 5-chloro-3-fluorothieno[3,2-b]thiophene-2-carboxylic acid]	
0.14 µM	0.41 µM	O=C(O)c1sc2cc(F)sc2c1F [Example 5, 3,5-Difluorothieno[3,2-b]thiophene-2-carboxylic acid]	
0.23 µM	4.2 µM	Cc1c(F)sc2cc(C(=O)O)sc12 [Example 6, 5-fluoro-6-methylthieno[3,2-b]thiophene-2-carboxylic acid]	
0.33 µM	3.4 µM	O=C(O)c1cc2sc(F)c(Cl)c2s1 [Example 10, 6-chloro-5-fluorothieno[3,2-b]thiophene-2-carboxylic acid]	
0.26 µM	1.8 µM	O=C(O)c1sc2c(F)c(F)sc2c1Cl [Example 8, 3-chloro-5,6-difluorothieno[3,2-b]thiophene-2-carboxylic acid]	
0.058 µM	0.39 µM	O=C(O)c1cc2sc(F)c(F)c2s1 [Example 4, 5,6-Difluorothieno[3,2-b]thiophene-2-carboxylic acid]	
0.4 µM	1.2 µM	O=C(O)c1cc2sc(Cl)c(F)c2s1 [Example 12, 5-chloro-6-fluorothieno[3,2-b]thiophene-2-carboxylic acid]	
